Assay results published in patent US9216183B2, “Topical treatment for chemotherapy induced eyelash loss or hypotrichosis using prostamide F2 alpha agonists” (ALLERGAN, INC., priority 2002, dated 2015).
Values joined by “and” are separate entries in the source; they are usually repeats but may differ in a detail not shown here. Identical values can stand only once.

Assays:
[1] = system: eyelashes of subjects with chemotherapy-induced hypotrichosis; test: Digital image analysis of upper eyelash length, thickness, darkness, chemotherapy-induced hypotrichosis; assay type: in vivo, human; conditions: for Upper eyelash length, median percent change from baseline / Upper eyelash thickness, median percent change from baseline / Upper eyelash darkness, median percent change from baseline: chemotherapy-induced; for Upper eyelash darkness, median percent change from baseline / Mean change from baseline in eyelash darkness: negative = darker
Protocol: Efficacy was also assessed using more conservative criteria of 2-grade improvement in GEA. […] In addition to the investigator global assessment (GEA) and subjects own assessment (ESQ), the eyelash length, thickness/fullness and darkness were measures using digital image analysis. Secondary efficacy measures were based on digital image analysis (DIA) of eyelash characteristics: upper eyelash length (millimeters [mm]), thickness (mm^2), and darkness (intensity units). For darkness, a negative value in terms of change from baseline indicated darker eyelashes. Upper eyelash characteristics of length, thickness, and darkness were determined by a validated DIA method. The reliability and reproducibility of DIA have been verified within the acceptance criteria of 0.05% or less of mean coefficient of variance. The principal variables for the secondary efficacy assessments are: change from baseline in upper eyelash length (mm), average progressive eyelash thickness (mm^2), and eyelash darkness (intensity units) at months 4, 6, 10, and 12 or early termination. Descriptive statistics of the raw value at baseline and percent change from baseline at follow-up visits were summarized by treatment group for each principal measure of the 3 secondary variables of eyelash characteristics. Between-group comparisons were performed using a van Elteren test stratified by hypotrichosis etiology.

[2] = system: eyelashes of subjects with chemotherapy-induced hypotrichosis; test: GEA / ESQ Domain 2 responder analysis, 1-year clinical study, chemotherapy-induced hypotrichosis; assay type: in vivo, human
Source text: The full 12-month study consisted of 2 distinct 6-month treatment periods, treatment period 1 (TP1) and treatment period 2 (TP2). Eligible post-chemotherapy subjects were randomly assigned in a 3:1 ratio to receive bimatoprost or vehicle for TP1. In TP2, the subjects were either maintained on or switched to bimatoprost treatment. The primary efficacy endpoint was the proportion of treatment responders at month 4 based on a composite endpoint, defined by: a) at least a 1-grade improvement from baseline in the GEA score, and b) at least a 3-point improvement from baseline in the total score for Domain 2 of the ESQ. The GEA is an investigator assessment of eyelash prominence and the ESQ score is patients own perception of their eyelashes. A one-year, multicenter, randomized, double-masked, vehicle-controlled study. Adult post-chemotherapy and idiopathic eyelash hypotrichosis subjects were enrolled based on their score of 1 or 2 on a four point ordinal Global Eyelash Assessment (GEA) scale, and in addition having a low score on a PRO measure associated with 'psychological impact' of the condition, a domain-2 of the Eyelash Satisfaction Questionnaire (ESQ). The study involved two treatment periods of six months each. In the first treatment period, subjects for both populations were randomized 3:1 for QD bimatoprost: vehicle treatment. In the second 6-month treatment period, all subjects were moved to bimatoprost treatment, except for a group of bimatoprost treated idiopathic hypotrichosis subjects (n=55) who were switched to vehicle to investigate the effect of drug discontinuation. The study included 9 visits over the 12-month treatment period. The primary end point was the proportion of responders within each treatment group based on a composite measure of GEA and ESQ Domain-2 (investigator assessed eyelash prominence and subject's assessment of 'psychological impact' related to eyelashes) at month-4. This multicenter, double-masked, randomized, parallel-group study included two 6-month treatment periods. Subjects with idiopathic hypotrichosis were randomized to 3 treatment groups: 1) treatment period 1 (TP1) and TP2: bimatoprost; 2) TP1: bimatoprost; TP2: vehicle; and 3) TP1: vehicle; TP2: bimatoprost. Subjects with chemotherapy-induced hypotrichosis were randomized to 2 treatment groups: 1) TP1: bimatoprost or vehicle; and 2) TP2: bimatoprost. The primary endpoint was a composite of at least a 1-grade improvement in investigator-assessed Global Eyelash Assessment (GEA), and at least a 3-point improvement in subject-reported Eyelash Satisfaction Questionnaire (ESQ) Domain 2 (self-perceived confidence, attractiveness, and professionalism) at month 4. Secondary measures included digitally assessed eyelash characteristics (i.e., eyelash length, fullness, and darkness). Idiopathic hypotrichosis subjects were randomized to 3 treatment arms in a 2:1:1 ratio: bimatoprost during both treatment periods; vehicle in TP1 and bimatoprost in TP2; and bimatoprost in TP1 and vehicle in TP2. Chemotherapy-induced hypotrichosis subjects were randomized in a 3:1 ratio to receive bimatoprost during both treatment periods or vehicle in TP1 followed by bimatoprost in TP2. Male or female subjects at least 18 years of age who met these criteria were eligible for inclusion in the study: a score of 1 or 2 on the clinician-graded global eyelash assessment (“GEA”); a score of 1 (very much disagree) or 2 (disagree) on each of 3 items (16 [confidence], 19 [attractiveness], and 18 [professionalism]) on the subject-assessed eyelash satisfaction questionnaire (“esq”); best-corrected visual acuity (“bcva”) score equivalent to a […] acuity of 20/100 or better in each eye; and intraocular pressure (“iop”) 20 mm hg or less in each eye. […]

[3] = postchemotherapy, Month 4, bimatoprost from day 1
[4] = postchemotherapy, Month 4, bimatoprost from day 1, listed as Bim/Bim
[5] = postchemotherapy, Month 6, bimatoprost from day 1
[6] = postchemotherapy, Month 6, bimatoprost from day 1, listed as Bim/Bim
[7] = postchemotherapy, Month 6, bimatoprost from day 1, listed as bimatoprost
[8] = postchemotherapy, Month 10, Bim/Bim
[9] = postchemotherapy, Month 10, Veh/Bim (bimatoprost since month 6)
[10] = postchemotherapy, Month 12, Bim/Bim
[11] = postchemotherapy, Month 12, Veh/Bim (bimatoprost since month 6)
[12] = postchemotherapy, Month 12, bimatoprost up to 12 months
[13] = postchemotherapy, Month 4, listed as Bimatoprost
[14] = postchemotherapy, Month 4, listed as bimatoprost
[15] = postchemotherapy, Month 12, bimatoprost throughout

CCNC(=O)CCC/C=C\C[C@@H]1[C@@H](/C=C/[C@@H](O)CCc2ccccc2)[C@H](O)C[C@@H]1O [Bim 0.03%, bimatoprost]
Upper eyelash length, median percent change from baseline ([1]; Month 4): 28.50%
Upper eyelash thickness, median percent change from baseline ([1]; Month 4): 180.10%
Upper eyelash length, median percent change from baseline ([1]; Month 4, listed as Bimatoprost): 28.5 (94) %
Upper eyelash thickness, median percent change from baseline ([1]; Month 4, listed as Bimatoprost): 180.1 (64) %
Upper eyelash darkness, median percent change from baseline ([1]; Month 4): −14.40%
Upper eyelash darkness, median percent change from baseline ([1]; Month 4, listed as Bimatoprost): −14.4 (65) %
Upper eyelash length, median percent change from baseline ([1]; Month 6, listed as Bimatoprost): 37.8 (94) %
Upper eyelash thickness, median percent change from baseline ([1]; Month 6, listed as Bimatoprost): 245.9 (64) %
Upper eyelash length, median percent change from baseline ([1]; Month 6, listed as bimatoprost): 37.84%
Upper eyelash thickness, median percent change from baseline ([1]; Month 6, listed as bimatoprost): 245%
Upper eyelash darkness, median percent change from baseline ([1]; Month 6): −16.3 (65) %
Mean change from baseline in average progressive eyelash thickness [1, 3]: 0.67 mm^2
Mean change from baseline in eyelash length [1, 3]: 1.48 mm
Mean change from baseline in average progressive eyelash thickness [1, 4]: 0.67 ± 0.514 mm^2
Mean change from baseline in eyelash length [1, 4]: 1.48 ± 1.391 mm
Mean change from baseline in eyelash darkness ([1]; postchemotherapy, Month 4): −22.48
Eyelash length, mean percent increase from baseline ([1]; postchemotherapy, Month 6): 48.08%
Eyelash thickness, mean percent increase from baseline ([1]; postchemotherapy, Month 6): 428%
Mean change from baseline in average progressive eyelash thickness [1, 5]: 0.83 mm^2
Mean change from baseline in eyelash length [1, 5]: 1.99 mm
Mean change from baseline in average progressive eyelash thickness [1, 6]: 0.83 ± 0.576 mm^2
Mean change from baseline in eyelash length [1, 6]: 1.99 ± 1.557 mm
Mean change from baseline in average progressive eyelash thickness [1, 7]: 0.83 mm^2
Mean change from baseline in eyelash length [1, 7]: 1.99 mm
Mean change from baseline in eyelash darkness ([1]; postchemotherapy, Month 6): −26.46
Mean change from baseline in average progressive eyelash thickness [1, 8]: 0.88 ± 0.516 mm^2
Mean change from baseline in eyelash length [1, 8]: 2.14 ± 1.455 mm
Mean change from baseline in average progressive eyelash thickness [1, 9]: 0.63 ± 1.042 mm^2
Mean change from baseline in eyelash length [1, 9]: 2.27 ± 1.439 mm
Mean change from baseline in average progressive eyelash thickness [1, 10]: 0.85 ± 0.575 mm^2
Mean change from baseline in eyelash length [1, 10]: 2.01 ± 1.504 mm
Mean change from baseline in average progressive eyelash thickness [1, 11]: 0.58 ± 1.085 mm^2
Mean change from baseline in eyelash length [1, 11]: 2.07 ± 1.442 mm
Eyelash length, mean percent increase from baseline [1, 12]: 49.88%
Eyelash length, median percent increase from baseline [1, 12]: 39.08%
Eyelash thickness, mean percent increase from baseline [1, 12]: 478%
Eyelash thickness, median percent increase from baseline [1, 12]: 212%
GEA response rate (FIG. 9) ([2]; chemotherapy-induced hypotrichosis, duration of the trial): about 80%
Primary composite endpoint responders (≧1-grade GEA and ≧3-point ESQ Domain 2 improvement) ([2]; postchemotherapy, Month 1): (6.3%)
Primary composite endpoint responders (≧1-grade GEA and ≧3-point ESQ Domain 2 improvement) ([2]; postchemotherapy, Month 2): (22.9%)
Responders with ≧1-grade increase in GEA score ([2]; postchemotherapy, Month 4): 72.9%
Responders with ≧2-grade increase in GEA score ([2]; postchemotherapy, Month 4): 36.5%
Responders with ≧3-point increase in ESQ Domain 2 ([2]; postchemotherapy, Month 4): 40.6%
Primary composite endpoint responders (≧1-grade GEA and ≧3-point ESQ Domain 2 improvement) [2, 13]: 37.5%
Responders with ≧1-grade increase in GEA score [2, 13]: 72.9%
Primary composite endpoint responders (≧1-grade GEA and ≧3-point ESQ Domain 2 improvement) [2, 14]: 37.5%
Responders with ≧1-grade increase in GEA score [2, 14]: > 70% and 72.9%
Primary composite endpoint responders (≧1-grade GEA and ≧3-point ESQ Domain 2 improvement) ([2]; postchemotherapy, Month 4, listed as bimatoprost 0.03%): 37.5%
Responders with ≧1-grade increase in GEA score ([2]; postchemotherapy, Month 6): 80.2%
Responders with ≧2-grade increase in GEA score ([2]; postchemotherapy, Month 6): 45.8%
Responders with ≧3-point increase in ESQ Domain 2 ([2]; postchemotherapy, Month 6): 47.9%
Primary composite endpoint responders (≧1-grade GEA and ≧3-point ESQ Domain 2 improvement) ([2]; postchemotherapy, Month 6, listed as Bim/Bim): 46.9%
Primary composite endpoint responders (≧1-grade GEA and ≧3-point ESQ Domain 2 improvement) ([2]; postchemotherapy, Month 6, listed as Bimatoprost): 46.9%
Primary composite endpoint responders (≧1-grade GEA and ≧3-point ESQ Domain 2 improvement) ([2]; postchemotherapy, Month 6, listed as bimatoprost): 46.9%
Responders with ≧2-grade increase in GEA score ([2]; postchemotherapy, Month 10, Veh/Bim (4 months after starting bimatoprost)): 50%
Primary composite endpoint responders (≧1-grade GEA and ≧3-point ESQ Domain 2 improvement) ([2]; postchemotherapy, Month 10, bimatoprost throughout): 54.2%
Responders with ≧2-grade increase in GEA score ([2]; postchemotherapy, Month 12, Veh/Bim): 52.9%
Primary composite endpoint responders (≧1-grade GEA and ≧3-point ESQ Domain 2 improvement) ([2]; postchemotherapy, Month 12, bimatoprost for 12 months (Bim/Bim)): 61.5%
Responders with ≧1-grade increase in GEA score [2, 15]: 90.6%
Responders with ≧3-point increase in ESQ Domain 2 [2, 15]: 63.5%
Responders with ≧2-grade increase in GEA score [2, 12]: 57.3%
Primary composite endpoint responders (≧1-grade GEA and ≧3-point ESQ Domain 2 improvement) ([2]; postchemotherapy, Month 12, vehicle first 6 months then bimatoprost (Veh/Bim)): 67.6%
ESQ Domain 2 mean change in total score from baseline ([2]; postchemotherapy, visit not stated (months 4 and 6 discussed)): 2.8
